Reference: patent US8497123B2, “Sterol glucoside toxins” (priority 2000, dated 2013)
“Also recorded” adds a separate entry of the source. Where two headings read alike, the source gives them in different places.

Experiments:
[1] = tested on: adult rat neocortex cortical wedges; assay type: cell-based; conditions: for field potential response with AMPA antagonist NBQX: co-application of NBQX or other AMPA antagonists; for field potential response: cortical wedge, Mg2+-free buffer; for field potential response with NMDA receptor antagonists (AP5, kynurenate, MK801): co-application of NMDA antagonist
Description: Cortical ‘wedges’ were prepared as described previously (Shaw et al., 1996). In brief, animals were anesthetized with CO2, decapitated, and a cortical block rapidly removed and placed in cold Krebs-Henseleit buffer containing (in mM): NaCl 124, KCl 3.3, NaHCO3 25, glucose 10, KH2PO4 1.2, CaCl2 2.4, and MgSO4 1.2, bubbled with 5% CO2/95% O2, pH 7.4. The cortical block was sectioned into […] thick coronal slices using a Vibratome (Campden Instruments) and the slices cut into pie shaped wedges in which the white matter formed the narrow edge of the wedge. Each wedge was placed on a net across a grease gap between two fluid filled chambers. The cortical side of the wedge was bathed (at room temperature, approx. 25° C.) in buffer lacking Mg^2+; the callosal portion was bathed in buffer containing Mg^2+ to minimize neural activity. Field potentials were differentially recorded between the two chambers using two Ag/AgCl electrodes. Recordings from up to 6 wedges, each in individual chambers, could be made simultaneously for each experiment. The wedges were continuously perfused on the cortical side with oxygenated, Mg^2+-free buffer using a gravity feed system. Using this system, drugs could be rapidly substituted for control media to examine response characteristics. Wedges typically survived for up to 8 hrs. Responses were recorded on LabView™ after amplification and A/D conversion and the traces were charted in Excel™ for Windows™. Statistical analysis of peak response amplitude was performed by one-way ANOVA using Bonferroni's post test with GraphPad Prism™.

rat cortical slices [2] = conditions: for LDH release (cell death) / LDH release in presence of AP5 / NMDA antagonists: rat cortical slices; for LDH release (cell death): 1 hr at 37° C.; for LDH release in presence of AP5 / NMDA antagonists: plus AP5
Description: Cortical slices were prepared as described above in the glutamate release experiments and placed in tissue culture wells containing Krebs-Heinsleight buffer supplemented with 0.0004% H2O2 and 1 mg/mL glucose. […] For additional comparison and to establish the limits of the method, some slices were freeze-thawed to kill all the cells. Alternatively, some slices were incubated in buffer containing 1.2 mM Mg^2+ in order to diminish spontaneous neural activity. At the end of the 1 hr incubation period, 3 samples (100 μl of buffer, each sample) were taken from each well. LDH assays were performed on these samples using a LDH diagnostic kit (Sigma) following the manufacturer's protocol with some modifications. In brief, 0.5 ml of pyruvate solution was mixed with 0.5 mg pre-weighed NADH. 100 μl of slice medium (free of slices) was added to the mixture and incubated for 30 min at 37° C. 0.5 ml of Sigma coloring reagent (2, 4-dinitrophenylhydrazine in HCl, 2 mg/ml) was added to develop the color and the mixture was incubated for 20 min at room temperature. 5 ml of 0.4 N NaOH were added to each tube. After 5 min, optical density was read at 440 nm. Standard curves were prepared for each assay using different concentrations of pyruvate solution (0-960 units). LDH activity (in International Units) was calculated from the standard curve and normalized by total protein content of each slice as determined by the Lowry protein assay (Peterson, 1979). One International Unit represents the amount of enzyme required to convert 1 μmol of substrate/minute at room temperature.
(§1) Data for LDH and glutamate release experiments were analyzed for significance by one way ANOVA using Dunnett's and Bonferroni's post tests with GraphPad Prism™.

[3] = tested on: human cortical astrocytes; assay type: cell-based; conditions: for apoptotic cell loss (cell density, caspase-3): cortical astrocytes on coverslips
Description: FIG. 5: Caspase-3 labeling of human cortical astrocytes in tissue culture. Fetal human telencephalic astrocytes were grown to confluency and then exposed to NMDA, BSSG, cholesterol glucoside (CG), or hydrogen peroxide (H2O2) for various periods. […] At longer time points, the overall numbers of cells in these conditions declined.
We have raised cortical astrocytes on coverslips in culture, exposing them to […], or cholesterol glucoside. Cell loss was measured directly by cell density measurements; apoptosis was measured by staining cells for caspase-3 labeling.

rat cortical slices [4] = assay type: cell-based
Description: Brain slices were taken from cortical blocks in which all subcortical tissue had been removed. […] slices were cut using a modified slice cutter (Van Huizen et al., 1989). Slices were rinsed twice for 5 min in Mg^+2 containing Krebs-Henseleit buffer pH 7.4. Incubation media consisted of 100 μM cold glutamate, 20 μM AP5 and 10 μM DNQX, the latter NMDA or AMPA antagonists, respectively. 10 nM of [^3H]-glutamate was added to the mixture and incubated for 1 hr at 37° C. under in oxygenated atmosphere (O2/CO2=95/5%). Experimental treatments were performed in […] Mg^+2 free buffer placed in tissue culture wells containing different concentrations of MSO or isolated BSSG fractions of cycad flour. Slices were removed at the end of incubation period and the supernatant removed for scintillation counting. The supernatant fractions were placed in scintillation vials containing NEN Formula 989 for a minimum of 12 hrs before being counted in a Beckman LS6000 scintillation counter. Results were normalized to the dpm counts of respective controls.
as §1

Rats = conditions: rats fed MSO
Description: Terminal deoxynucleotidyl transferase (TdT) mediated dUTP-digoxigenin (DIG) nickend labeling (TUNEL) was carried out using an Intergen ApopTag Plus peroxidase kit using the manufacturer's protocol adapted from Gavrieli et al. (1992) with some modifications. […] Briefly, 20 μM thick coronal sections were cut on a cryostat then fixed in 1% paraformaldehyde at room temperature for 2 days. […] After rinsing with PBS, the sections were then exposed to 11 μL/cm^2 working strength of TdT enzyme for 1 hr at 37° C. After washing in PBS, 15 μL/cm^2 of anti-digoxigenin-peroxidase was applied for 30 min in a humidified chamber at room temperature. Colour was developed by adding 125 μl DAB substrate working solution for 6 min. Slides were counter-stained with methyl green for 25 minutes at room temperature. Positive apoptosis controls were generated by pre-incubating sections with DNAase (Sigma).

[5] = fetal human telencephalic astrocytes, vs. control (DMEM)

`Cc1onc(O)c1CC(N)C(=O)O` (stereo not drawn) [AMPA, α-amino-3-hydroxy-5-methyl-4-isoxazolepropionic acid] was tested, and the “field potential response with AMPA antagonist NBQX” value [1] was “blocked”.

In the case of `CC[C@H](CC[C@@H](C)[C@H]1CC[C@H]2[C@@H]3CC=C4C[C@@H](O[C@@H]5O[C@H](CO)[C@@H](O)[C@H](O)[C@H]5O)CC[C@]4(C)[C@H]3CC[C@]12C)C(C)C` [BSSG, beta-sitostrol-beta-D-glucoside (5-cholesten-24b-ethyl-3b-ol-D-glucoside)], the field potential response ([1]; bath application) is reported as “qualitative similarity”, the “LDH release (cell death)” value (rat cortical slices [2]) is reported as “qualitative similarity” and the “apoptotic cell loss (cell density, caspase-3)” value (“apoptotic cell loss” below) [3] is reported as “time-dependent apoptotic cell loss”. The caspase-3 positive labeling [3, 5] was “significant caspase-3 positive labeling”.

In the case of `OO` [H2O2, hydrogen peroxide], the “effect on LDH release” value (rat cortical slices [2]) is reported as “did not affect” and the caspase-3 positive labeling ([3]; human) is reported as “significant caspase-3 positive labeling”.

In the case of `CS(=N)(=O)CC[C@H](N)C(=O)O` (stereo partly shown) [MSO, methionine sulfoximine], the “concentration at which depolarizing field potentials begin” value ([1]; bath application, cortical wedge from adult rat) is reported as “approx. 50 μM”, the field potential response ([1]; bath application) is reported as “depolarizing field potentials” and the “field potential response with AMPA antagonist NBQX” value [1] is reported as “not blocked”. For the same compound, the “field potential response with NMDA receptor antagonists (AP5, kynurenate, MK801)” value [1] was “blocked”, the “LDH release (cell death)” value (rat cortical slices [2]) was “increased cell death” and the “LDH release in presence of AP5 / NMDA antagonists” value (rat cortical slices [2]) was “blocked”. For the same compound, the “calcium dependence of [3H]-glutamate release” value (rat cortical slices [4]; calcium 0 (L) or 2 mM (H)) was “calcium dependent”, the “preloaded [3H]-glutamate release” value (rat cortical slices [4]; rat cortical slices) was “significantly increased” and the “[3H]-glutamate release in presence of AP5” value (rat cortical slices [4]; rat cortical slices, plus AP5) was “blocked”. For the same compound, the “apoptosis in CNS” value (Rats) was “evidence of apoptosis”.

`CN[C@H](CC(=O)O)C(=O)O` [NMDA, N-methyl-D-aspartate] was tested, and the “field potential response with NMDA receptor antagonists (AP5, kynurenate, MK801)” value [1] was “blocked”, the “LDH release (cell death)” value (rat cortical slices [2]) was “increased cell death” and the “LDH release in presence of AP5 / NMDA antagonists” value (rat cortical slices [2]) was “attenuated; also recorded: blocked”. For the same compound, the caspase-3 positive labeling [3, 5] was “significant caspase-3 positive labeling”.

`C[C@@H]1O[C@@H](O[C@H]2C[C@@H](O)[C@]3(CO)[C@H]4[C@H](O)C[C@]5(C)[C@@H](C6=CC(=O)OC6)CC[C@]5(O)[C@@H]4CC[C@]3(O)C2)[C@H](O)[C@H](O)[C@H]1O` [Ouabain, ouabain] was tested, and the field potential response ([1]; bath application) was “small hyperpolarizing responses” and the “LDH release (cell death)” value (rat cortical slices [2]) was “little LDH release”.

`CC(C)CCC[C@@H](C)[C@H]1CC[C@H]2[C@@H]3CC=C4C[C@@H](O[C@@H]5O[C@H](CO)[C@@H](O)[C@H](O)[C@H]5O)CC[C@]4(C)[C@H]3CC[C@]12C` [cholesterol glucoside, 5-cholesten-3b-ol-3b-D-glucoside] was tested, and the field potential response ([1]; bath application) was “qualitatively similar to β-sitosterol-β-D-glucoside”, the “LDH release (cell death)” value (rat cortical slices [2]) was “qualitatively similar to β-sitosterol-β-D-glucoside” and the “apoptotic cell loss” value [3] was “time-dependent apoptotic cell loss”. The caspase-3 positive labeling [3, 5] was “significant caspase-3 positive labeling”.

In the case of `CC(C)CCC[C@@H](C)[C@H]1CC[C@H]2[C@@H]3CC=C4C[C@@H](O)CC[C@]4(C)[C@H]3CC[C@]12C` [cholesterol], the field potential response ([1]; bath application) is reported as “without effect” and the “LDH release (cell death)” value (rat cortical slices [2]) is reported as “without effect”.

For `CO[C@H]1[C@@H](O)[C@@H](C)O[C@@H](O[C@H]2CC[C@]3(C)[C@H]4CC[C@]5(C)[C@@H](C6=CC(=O)OC6)CC[C@]5(O)[C@@H]4CC[C@]3(O)C2)[C@@H]1O` [emicymarin], the field potential response ([1]; bath application) was “small hyperpolarizing responses” and the “LDH release (cell death)” value (rat cortical slices [2]) was “little LDH release”.

In the case of `C=C(C)[C@H]1CN[C@H](C(=O)O)[C@H]1CC(=O)O` [kainic acid], the “apoptotic cell loss” value [3] is reported as “time-dependent apoptotic cell loss”.

For `CC[C@H](CC[C@@H](C)[C@H]1CC[C@H]2[C@@H]3CC=C4C[C@@H](O)CC[C@]4(C)[C@H]3CC[C@]12C)C(C)C` [β-sitosterol agylcone, beta-sitosterol (stigmasta-5-en-3beta-ol)], the field potential response ([1]; bath application) was “without effect” and the “LDH release (cell death)” value (rat cortical slices [2]) was “without effect”.
